# Measurements as given in US6399632B1, “Method of providing an antihistaminic effect in a hepatically impaired patient” (Merrell Pharmaceuticals Inc., priority 1992, dated 2002).
# What was measured:
# [1] = system: patients with impaired hepatic function; conditions: recommended dose of terfenadine, or antihistaminic amount of acid metabolite
# [2] = plasma concentrations of unchanged terfenadine and acid metabolite formation in subjects; type: in vivo
# [3] = to two primary metabolites; cited from earlier work
# [4] = molecular target: histamine H1-receptor (Homo sapiens, UniProt P35367); conditions: primary metabolites of terfenadine; cited from earlier work
# [5] = cases of hepatic impairment, preliminary information
# Sequence of histamine H1-receptor (P35367 whole entry, species assumed): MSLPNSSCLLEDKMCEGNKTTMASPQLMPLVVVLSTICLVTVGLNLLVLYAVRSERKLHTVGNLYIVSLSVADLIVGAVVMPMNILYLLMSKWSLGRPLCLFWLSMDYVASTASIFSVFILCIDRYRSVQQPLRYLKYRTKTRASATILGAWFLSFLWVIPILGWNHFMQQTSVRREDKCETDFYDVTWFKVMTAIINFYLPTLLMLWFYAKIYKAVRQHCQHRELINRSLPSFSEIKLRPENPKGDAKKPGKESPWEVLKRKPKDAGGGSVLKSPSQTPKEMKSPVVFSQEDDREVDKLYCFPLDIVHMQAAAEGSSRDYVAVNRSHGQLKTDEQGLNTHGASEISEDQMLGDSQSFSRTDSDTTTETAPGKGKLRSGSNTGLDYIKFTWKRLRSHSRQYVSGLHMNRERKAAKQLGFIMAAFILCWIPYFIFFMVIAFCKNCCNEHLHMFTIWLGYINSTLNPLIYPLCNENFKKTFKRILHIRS
smiles,measurement,setting,value
"CC(C)(C(=O)O)c1ccc(C(O)CCCN2CCC(C(O)(c3ccccc3)c3ccccc3)CC2)cc1 (stereo not drawn) [terfenadine acid metabolite, 4-[l-hydroxy-4-[4-(hydroxydiphenylmethyl)-1-piperidinyl]butyl]-α,α-dimethyl-benzeneacetic acid]",cardiac events of QT prolongation and/or ventricular tachycardia,[1],will not experience cardiac events of QT prolongation and/or ventricular tachycardia
"CC(C)(C)c1ccc(C(O)CCCN2CCC(C(O)(c3ccccc3)c3ccccc3)CC2)cc1 (stereo not drawn) [Terfenadine, α-[4-(1,1-dimethylethyl)phenyl]-4-(hydroxydiphenylmethyl)-1-piperidinebutanol]",rate of acid metabolite formation,[2]; [5],decreased
same,unchanged terfenadine plasma concentrations,[2]; [5],significant concentrations of unchanged terfenadine can be detected
same,unchanged terfenadine plasma concentrations,[2]; subjects with normal hepatic function,have not been detected
same,first pass metabolism,[3],99%
OC(c1ccccc1)(c1ccccc1)C1CCNCC1 [dealkylated metabolite],activity of metabolite (antihistaminic),[4],inactive
